Measurements taken from patent US20250099528A1, “ORAL COMPOSITION” (Toyo Shinyaku Co., Ltd., priority 2023, published 2025).

Tested on: Caco-2 cells
Test: Leucine permeability test using Caco-2 cells
Assay type: in vitro ADME, Human
Details: Caco-2 insert wells, luminal to basolateral side, culture two hours, L-leucine 0.131 mg/mL, HPLC
Experimental: To assess the action of promoting free amino acid absorption of a dark-green vegetable, leucine permeability was measured by a test using Caco-2 cells. The following materials were used as test substances. • (1) As a dark-green vegetable, crushed powder of young barley grass (containing 43% by weight of dietary fiber; manufactured by TOYO SHINYAKU Co., Ltd.) which was obtained by washing grass harvested before heading, then cutting, drying, and then crushing was used. The crushed powder of young barley grass in an amount of 24 mg was put into a tube, and after adding 1 mL of a buffer, the mixture was vortexed. Then, the supernatant was collected through centrifugation at 15,000×g for five minutes at room temperature. […] When the medium was changed before the addition of the samples, the medium outside the insert wells (the wells at the basolateral side) was replaced with 1000 μl of 10% FBS-DMEM, and the medium inside the insert wells (the wells at the luminal side) was replaced with 350 μl of 10% FBS-DMEM. • (5) The electrical resistance values were measured with Millicell ERS-2, and the wells having a value of 1000Ω or more were used. […] The leucine concentrations of the obtained concentrated liquids were measured with high performance liquid chromatography. The measurement results were applied to the equation below, and thus the leucine permeability was calculated. […]

Leucine Permeability (%): 1.32%
SMILES: CC(C)C[C@H](N)C(=O)O [Comparative Example 1, L-leucine]
